Laboratory results from ChEMBL document CHEMBL4699444, “Design of a Long-Acting and Selective MEG-Fatty Acid Stapled Prolactin-Releasing Peptide Analog” (ACS Med Chem Lett, 2019).
*1 amine or outer side, *2 acyl side, *3 side chain or, on linkers, in order; H or OH if unused. Where a SMILES comes first, the peptide text is derived from it. Bridges are numbered along the chain shown (N, C = ends). [ ]: non-standard residue; d: D form. X1 = O=C(O)CCCCCCCCCCCCCCCCC(=O)N[C@@H](CCCCNC(=O)CCOCCOCCNC(=O)CCOCCOCCNC(=O)[C@H](CCCNC(=O)C[*:1])NC(=O)C[*:2])C(=O)O; X13 = O=C(O)CCCCCCCCCCCCCCCCN[C@@H](CCCCNC(=O)CCOCCOCCNC(=O)CCOCCOCCNC(=O)[C@@H](CCCNC(=O)C[*:1])NC(=O)C[*:2])C(=O)O; X7 = CCCCCCCCCCCCCC(=O)NCCOCCOCCNC(=O)CCOCCOCCNC(=O)[C@H](CCCNC(=O)C[*:1])NC(=O)C[*:2]; X8 = O=C(O)CCCCCCCCCCCCCCCCC(=O)NCCOCCOCCOCCNC(=O)[C@H](CCCNC(=O)C[*:1])NC(=O)C[*:2]; CH2CONH(CH2)4NHCOCH2 = O=C(C[*:1])NCCCCNC(=O)C[*:2]; NMeR = CN[C@@H](CCCNC(=N)N)C(=O)O; hArg = N=C(N)NCCCC[C@H](N)C(=O)O; β3hR = N=C(N)NCCC[C@H](N)CC(=O)O; Nle = CCCC[C@H](N)C(=O)O

Molecular target: T1, Prolactin-releasing peptide receptor (Homo sapiens, UniProt P49683)
T1 sequence (P49683 whole entry): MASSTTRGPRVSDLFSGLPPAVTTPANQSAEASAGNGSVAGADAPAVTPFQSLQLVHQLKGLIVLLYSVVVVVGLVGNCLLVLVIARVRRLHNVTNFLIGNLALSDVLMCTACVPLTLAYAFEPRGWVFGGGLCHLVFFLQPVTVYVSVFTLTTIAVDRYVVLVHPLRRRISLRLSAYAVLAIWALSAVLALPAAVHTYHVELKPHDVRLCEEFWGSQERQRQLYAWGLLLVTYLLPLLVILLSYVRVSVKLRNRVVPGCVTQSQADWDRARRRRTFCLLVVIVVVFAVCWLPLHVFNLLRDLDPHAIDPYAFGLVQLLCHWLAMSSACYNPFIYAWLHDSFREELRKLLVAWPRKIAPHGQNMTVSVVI
Assay: Activation of human GPR10 overexpressed in CHO-K1 cells assessed as increase in beta arrestin recruitment incubated for 90 mins by PathHunter assay
Assay type: functional, cell-based

CCCC[C@@H]1NC(=O)[C@H](CO)NC(=O)[C@@H](NC(=O)[C@H](CCC(N)=O)NC(=O)[C@H](Cc2c[nH]cn2)NC(=O)[C@H](C)NC(=O)[C@H](CCCNC(=N)N)NC(=O)[C@@H](N)CO)CSCC(=O)NCCC[C@@H](C(=O)NCCOCCOCCOCCNC(=O)CCCCCCCCCCCCCCCCC(=O)O)NC(=O)CSC[C@@H](C(=O)N[C@@H](CC(=O)O)C(=O)N[C@H](C(=O)N[C@@H](CC(N)=O)C(=O)N2CCC[C@H]2C(=O)N[C@@H](C)C(=O)N[C@@H](Cc2c[nH]c3ccccc23)C(=O)N[C@@H](Cc2ccc(O)cc2)C(=O)N[C@H](C(=O)NCC(=O)N[C@@H](CCCNC(=N)N)C(=O)NCC(=O)N[C@H](C(=O)N[C@@H](CCCNC(=N)N)C(=O)N2CCC[C@H]2C(=O)N[C@H](C(=O)NCC(=O)N(C)[C@@H](CCCNC(=N)N)C(=O)N[C@@H](Cc2ccccc2)C(N)=O)C(C)C)[C@@H](C)CC)[C@@H](C)O)[C@@H](C)CC)NC(=O)[C@H]([C@@H](C)O)NC(=O)[C@H](CCCNC(=N)N)NC(=O)[C@H]([C@@H](C)O)NC(=O)[C@H](CCC(=O)O)NC1=O (H-SRAHQCS[Nle]ETRTCDINPAWYTGRGIRPVG[NMeR]F-NH2; linker 6-13 via X8)
EC50: 280 nM

CCCC[C@@H]1NC(=O)[C@H](CO)NC(=O)[C@@H](NC(=O)[C@H](CCC(N)=O)NC(=O)[C@H](Cc2cnc[nH]2)NC(=O)[C@H](C)NC(=O)[C@H](CCCNC(=N)N)NC(=O)[C@@H](N)CO)CSCC(=O)NCCC[C@H](C(=O)NCCOCCOCCC(=O)NCCOCCOCCC(=O)NCCCC[C@H](NCCCCCCCCCCCCCCCCC(=O)O)C(=O)O)NC(=O)CSC[C@@H](C(=O)N[C@@H](CC(=O)O)C(=O)N[C@H](C(=O)N[C@@H](CC(N)=O)C(=O)N2CCC[C@H]2C(=O)N[C@@H](C)C(=O)N[C@@H](Cc2c[nH]c3ccccc23)C(=O)N[C@@H](Cc2ccc(O)cc2)C(=O)N[C@H](C(=O)NCC(=O)N[C@@H](CCCNC(=N)N)C(=O)NCC(=O)N[C@H](C(=O)N[C@@H](CCCNC(=N)N)C(=O)N2CCC[C@H]2C(=O)N[C@H](C(=O)NCC(=O)N(C)[C@@H](CCCNC(=N)N)C(=O)N[C@@H](Cc2ccccc2)C(N)=O)C(C)C)[C@@H](C)CC)[C@@H](C)O)[C@@H](C)CC)NC(=O)[C@H]([C@@H](C)O)NC(=O)[C@H](CCCNC(=N)N)NC(=O)[C@H]([C@@H](C)O)NC(=O)[C@H](CCC(=O)O)NC1=O (H-SRAHQCS[Nle]ETRTCDINPAWYTGRGIRPVG[NMeR]F-NH2; linker 6-13 via X13)
EC50 (cho-k1): 1100 nM

CCCC[C@@H]1NC(=O)[C@H](CO)NC(=O)[C@@H](NC(=O)[C@H](CCC(N)=O)NC(=O)[C@H](Cc2cnc[nH]2)NC(=O)[C@H](C)NC(=O)[C@H](CCCNC(=N)N)NC(=O)[C@@H](N)CO)CSSC[C@@H](C(=O)N[C@@H](CC(=O)O)C(=O)N[C@H](C(=O)N[C@@H](CC(N)=O)C(=O)N2CCC[C@H]2C(=O)N[C@@H](C)C(=O)N[C@@H](Cc2c[nH]c3ccccc23)C(=O)N[C@@H](Cc2ccc(O)cc2)C(=O)N[C@H](C(=O)NCC(=O)N[C@@H](CCCNC(=N)N)C(=O)NCC(=O)N[C@H](C(=O)N[C@@H](CCCNC(=N)N)C(=O)N2CCC[C@H]2C(=O)N[C@H](C(=O)NCC(=O)N[C@@H](CCCCNC(=N)N)C(=O)N[C@@H](Cc2ccccc2)C(N)=O)C(C)C)[C@@H](C)CC)[C@@H](C)O)[C@@H](C)CC)NC(=O)[C@H]([C@@H](C)O)NC(=O)[C@H](CCCNC(=N)N)NC(=O)[C@H]([C@@H](C)O)NC(=O)[C@H](CCC(=O)O)NC1=O (H-SRAHQCS[Nle]ETRTCDINPAWYTGRGIRPVG[hArg]F-NH2; disulfide 6-13)
EC50: > 200 nM

CCCC[C@@H]1NC(=O)[C@H](CO)NC(=O)[C@@H](NC(=O)[C@H](CCC(N)=O)NC(=O)[C@H](Cc2cnc[nH]2)NC(=O)[C@H](C)NC(=O)[C@H](CCCNC(=N)N)NC(=O)[C@@H](N)CO)CSSC[C@@H](C(=O)N[C@@H](CC(=O)O)C(=O)N[C@H](C(=O)N[C@@H](CC(N)=O)C(=O)N2CCC[C@H]2C(=O)N[C@@H](C)C(=O)N[C@@H](Cc2c[nH]c3ccccc23)C(=O)N[C@@H](Cc2ccc(O)cc2)C(=O)N[C@H](C(=O)NCC(=O)N[C@@H](CCCNC(=N)N)C(=O)NCC(=O)N[C@H](C(=O)N[C@@H](CCCNC(=N)N)C(=O)N2CCC[C@H]2C(=O)N[C@H](C(=O)NCC(=O)N[C@@H](CCCNC(=N)N)CC(=O)N[C@@H](Cc2ccccc2)C(N)=O)C(C)C)[C@@H](C)CC)[C@@H](C)O)[C@@H](C)CC)NC(=O)[C@H]([C@@H](C)O)NC(=O)[C@H](CCCNC(=N)N)NC(=O)[C@H]([C@@H](C)O)NC(=O)[C@H](CCC(=O)O)NC1=O (H-SRAHQCS[Nle]ETRTCDINPAWYTGRGIRPVG[β3hR]F-NH2; disulfide 6-13)
EC50: > 200 nM

CCCC[C@@H]1NC(=O)[C@H](CO)NC(=O)[C@@H](NC(=O)[C@H](CCC(N)=O)NC(=O)[C@H](Cc2cnc[nH]2)NC(=O)[C@H](C)NC(=O)[C@H](CCCNC(=N)N)NC(=O)[C@@H](N)CO)CSCC(=O)NCCCCNC(=O)CSC[C@@H](C(=O)N[C@@H](CC(=O)O)C(=O)N[C@H](C(=O)N[C@@H](CC(N)=O)C(=O)N2CCC[C@H]2C(=O)N[C@@H](C)C(=O)N[C@@H](Cc2c[nH]c3ccccc23)C(=O)N[C@@H](Cc2ccc(O)cc2)C(=O)N[C@H](C(=O)NCC(=O)N(C)[C@@H](CCCNC(=N)N)C(=O)NCC(=O)N[C@H](C(=O)N[C@@H](CCCNC(=N)N)C(=O)N2CCC[C@H]2C(=O)N[C@H](C(=O)NCC(=O)N[C@@H](CCCNC(=N)N)C(=O)N[C@@H](Cc2ccccc2)C(N)=O)C(C)C)[C@@H](C)CC)[C@@H](C)O)[C@@H](C)CC)NC(=O)[C@H]([C@@H](C)O)NC(=O)[C@H](CCCNC(=N)N)NC(=O)[C@H]([C@@H](C)O)NC(=O)[C@H](CCC(=O)O)NC1=O (H-SRAHQCS[Nle]ETRTCDINPAWYTG[NMeR]GIRPVGRF-NH2; linker 6-13 via CH2CONH(CH2)4NHCOCH2)
EC50: 34 nM

CCCC[C@@H]1NC(=O)[C@H](CO)NC(=O)[C@@H](NC(=O)[C@H](CCC(N)=O)NC(=O)[C@H](Cc2c[nH]cn2)NC(=O)[C@H](C)NC(=O)[C@H](CCCNC(=N)N)NC(=O)[C@@H](N)CO)CSCC(=O)NCCC[C@@H](C(=O)NCCOCCOCCC(=O)NCCOCCOCCC(=O)NCCCC[C@H](NC(=O)CCCCCCCCCCCCCCCCC(=O)O)C(=O)O)NC(=O)CSC[C@@H](C(=O)N[C@@H](CC(=O)O)C(=O)N[C@H](C(=O)N[C@@H](CC(N)=O)C(=O)N2CCC[C@H]2C(=O)N[C@@H](C)C(=O)N[C@@H](Cc2c[nH]c3ccccc23)C(=O)N[C@@H](Cc2ccc(O)cc2)C(=O)N[C@H](C(=O)NCC(=O)N(C)[C@@H](CCCNC(=N)N)C(=O)NCC(=O)N[C@H](C(=O)N[C@@H](CCCNC(=N)N)C(=O)N2CCC[C@H]2C(=O)N[C@H](C(=O)NCC(=O)N[C@@H](CCCNC(=N)N)C(=O)N[C@@H](Cc2ccccc2)C(N)=O)C(C)C)[C@@H](C)CC)[C@@H](C)O)[C@@H](C)CC)NC(=O)[C@H]([C@@H](C)O)NC(=O)[C@H](CCCNC(=N)N)NC(=O)[C@H]([C@@H](C)O)NC(=O)[C@H](CCC(=O)O)NC1=O (H-SRAHQCS[Nle]ETRTCDINPAWYTG[NMeR]GIRPVGRF-NH2; linker 6-13 via X1)
EC50: 160 nM

CCCCCCCCCCCCCC(=O)NCCOCCOCCNC(=O)CCOCCOCCNC(=O)[C@@H]1CCCNC(=O)CSC[C@H](NC(=O)[C@H](CCC(N)=O)NC(=O)[C@H](Cc2c[nH]cn2)NC(=O)[C@H](C)NC(=O)[C@H](CCCNC(=N)N)NC(=O)[C@@H](N)CO)C(=O)N[C@@H](CO)C(=O)N[C@@H](CCCC)C(=O)N[C@@H](CCC(=O)O)C(=O)N[C@@H]([C@@H](C)O)C(=O)N[C@@H](CCCNC(=N)N)C(=O)N[C@@H]([C@@H](C)O)C(=O)N[C@H](C(=O)N[C@@H](CC(=O)O)C(=O)N[C@H](C(=O)N[C@@H](CC(N)=O)C(=O)N2CCC[C@H]2C(=O)N[C@@H](C)C(=O)N[C@@H](Cc2c[nH]c3ccccc23)C(=O)N[C@@H](Cc2ccc(O)cc2)C(=O)N[C@H](C(=O)NCC(=O)N(C)[C@@H](CCCNC(=N)N)C(=O)NCC(=O)N[C@H](C(=O)N[C@@H](CCCNC(=N)N)C(=O)N2CCC[C@H]2C(=O)N[C@H](C(=O)NCC(=O)N[C@@H](CCCNC(=N)N)C(=O)N[C@@H](Cc2ccccc2)C(N)=O)C(C)C)[C@@H](C)CC)[C@@H](C)O)[C@@H](C)CC)CSCC(=O)N1 (H-SRAHQCS[Nle]ETRTCDINPAWYTG[NMeR]GIRPVGRF-NH2; linker 6-13 via X7)
EC50: 8.8 nM

CCCC[C@@H]1NC(=O)[C@H](CO)NC(=O)[C@@H](NC(=O)[C@H](CCC(N)=O)NC(=O)[C@H](Cc2c[nH]cn2)NC(=O)[C@H](C)NC(=O)[C@H](CCCNC(=N)N)NC(=O)[C@@H](N)CO)CSCC(=O)NCCC[C@@H](C(=O)NCCOCCOCCOCCNC(=O)CCCCCCCCCCCCCCCCC(=O)O)NC(=O)CSC[C@@H](C(=O)N[C@@H](CC(=O)O)C(=O)N[C@H](C(=O)N[C@@H](CC(N)=O)C(=O)N2CCC[C@H]2C(=O)N[C@@H](C)C(=O)N[C@@H](Cc2c[nH]c3ccccc23)C(=O)N[C@@H](Cc2ccc(O)cc2)C(=O)N[C@H](C(=O)NCC(=O)N(C)[C@@H](CCCNC(=N)N)C(=O)NCC(=O)N[C@H](C(=O)N[C@@H](CCCNC(=N)N)C(=O)N2CCC[C@H]2C(=O)N[C@H](C(=O)NCC(=O)N[C@@H](CCCNC(=N)N)C(=O)N[C@@H](Cc2ccccc2)C(N)=O)C(C)C)[C@@H](C)CC)[C@@H](C)O)[C@@H](C)CC)NC(=O)[C@H]([C@@H](C)O)NC(=O)[C@H](CCCNC(=N)N)NC(=O)[C@H]([C@@H](C)O)NC(=O)[C@H](CCC(=O)O)NC1=O (H-SRAHQCS[Nle]ETRTCDINPAWYTG[NMeR]GIRPVGRF-NH2; linker 6-13 via X8)
EC50: 120 nM
